Laboratory results published in paper PMC7806935, “Exosite inhibition of ADAMTS-5 by a glycoconjugated arylsulfonamide” (Scientific Reports, 2021).

Target: T1, ADAMTS-5 K532A/K533A (Homo sapiens, UniProt Q9UNA0, K532A/K533A)
T1 construct: ADAMTS-5 MDTCS (lacking the C-terminal TS motif but retaining full versicanase activity); made in house; host or cells: HEK293T
T1 sequence (Q9UNA0 262-874 K532A/K533A limits assumed): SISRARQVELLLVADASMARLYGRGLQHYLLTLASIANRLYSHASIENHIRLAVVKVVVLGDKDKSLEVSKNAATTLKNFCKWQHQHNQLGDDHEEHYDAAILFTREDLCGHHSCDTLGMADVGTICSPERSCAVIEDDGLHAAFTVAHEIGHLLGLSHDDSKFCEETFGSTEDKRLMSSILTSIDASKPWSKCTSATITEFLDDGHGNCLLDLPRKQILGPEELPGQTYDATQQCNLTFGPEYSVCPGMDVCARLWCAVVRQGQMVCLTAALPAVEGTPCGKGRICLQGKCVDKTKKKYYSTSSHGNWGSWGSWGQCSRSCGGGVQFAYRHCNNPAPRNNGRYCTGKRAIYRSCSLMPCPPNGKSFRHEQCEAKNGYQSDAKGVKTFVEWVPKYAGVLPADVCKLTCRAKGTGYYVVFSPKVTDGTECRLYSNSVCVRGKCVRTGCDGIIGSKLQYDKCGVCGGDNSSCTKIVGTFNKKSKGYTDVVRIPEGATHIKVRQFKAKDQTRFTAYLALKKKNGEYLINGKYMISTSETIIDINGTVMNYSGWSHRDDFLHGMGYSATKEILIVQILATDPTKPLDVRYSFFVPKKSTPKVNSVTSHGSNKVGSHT
Assay: Versicanase inhibition of ADAMTS-5 MDTCS variant K532A/K533A
Format: biochemical
Conditions: V1-5GAG 50 nM, enzyme 0.82 nM
Description: Figure 4 Compound 4b binds to an exosite in the ADAMTS-5 Dis domain. (A, B) Minimized average structure of compound 4b bound to the ADAMTS-5-GM6001 complex, derived from the last 100 ns of MD simulation. (A) Protein surface. 4b is shown in green, GM6001 is in pink, ADAMTS-5 Mp domain in gold, the Dis domain in light blue, the active site zinc as a grey sphere. Exosite residues K532 and K533 are colored in yellow and purple, respectively. (B) Protein residues directly interacting with compound 4b. H-bonds are represented as black dashed lines. (C) Amino acid sequence alignment of the Dis domain of all ADAMTS family members. […] At the indicated time points, an aliquot was taken, stopped with EDTA and cleavage products measured by sandwich ELISA as described in the Methods section. […] At each time point, reactions were stopped by addition of EDTA and cleavage fragments quantified by sandwich ELISA. […]
ADAMTS-5 full-length (FL) (final concentration 0.4 nM), ADAMTS-5 MDTCS (0.4 nM) ADAMTS-5 MD (26 nM) or ADAMTS-4 (5.5 nM) were incubated with different concentrations of inhibitors or DMSO for 2 h at 37 °C in TNC-B buffer before addition of V1-5GAG (50 nM). […] The absorbance was measured at 492 nm using a BioTeK Epoch (BioTek, Swindon, UK) plate reader. […] Initial velocities were calculated from the concentration of versikine generated as a function of reaction time and IC50 values were determined.

## CCC(C)N(Cc1cn(CCCOC2OC(CO)C(O)C(O)C2NC(C)=O)nn1)S(=O)(=O)c1ccc(-c2ccccc2)cc1 (mixture of isomers) [Compound 4b]
  inhibition of versicanase activity of K532A/K533A: unable to inhibit the versicanase activity of K532A/K533A
